The subject of data set [1] is Simian immunodeficiency virus. Kind of data set: Antiviral activity against SIV MAC251 infected in human 174xCEM cells assessed as inhibition of virus-induced cytopathic effect. The format is functional, organism-based. For orientation: Protection from cytopathic effect is a common read-out in antiviral testing.
The test system of data set [2] is Human immunodeficiency virus 2. Put plainly: Antiviral activity against HIV2 infected in human CEM-SS cells assessed as inhibition of viral replication and virus-induced cytopathic effect by dose-response curve analysis. The conditions noted are these: Human immunodeficiency virus 2, CEM-SS. The data set is classed as functional.
Data set [3] has as its system Human immunodeficiency virus 2. Kind of data set: Antiviral activity against HIV2 ROD infected in human CEM-SS cells assessed as inhibition of virus-induced cytopathic effect by XTT assay. The data set is classed as functional, organism-based, ISOLATE ROD. The conditions noted are these: Human immunodeficiency virus 2, ISOLATE ROD, CEM-SS; read-out: EC50.
For data set [4], the system named is Human immunodeficiency virus 1. Put plainly: Antiviral activity against HIV1 RF infected in human CEM-SS cells assessed as inhibition of virus-induced cytopathic effect by XTT assay. The conditions noted are these: Human immunodeficiency virus 1, RF. The format is functional, organism-based.
Data set [5] has as its system Human immunodeficiency virus 2. Put plainly: Antiviral activity against HIV2 assessed as inhibition of viral single round replication at early time point. The data set is classed as functional, organism-based.
The next data set concerns HeLa. Put plainly: Inhibition of HIV1 gp120/CD4 interaction assessed as inhibition of gp120 and gp41 coexpressing human HL2/3 cell fusion to CD4 expressing human HeLa cells treated for 2 hrs measured after 48 hrs by chemiluminescence assay. The format is cell-based. The conditions noted are these: Human immunodeficiency virus 1.
For data set [6], the system named is Human immunodeficiency virus 1. Kind of data set: Antiviral activity against HIV1 infected in human CEM-SS cells assessed as inhibition of viral replication and virus-induced cytopathic effect by dose-response curve analysis. The format is functional. The conditions noted are these: Human immunodeficiency virus 1, CEM-SS.
For data set [7], the system named is Human immunodeficiency virus 2. Kind of data set: Inhibition of HIV2 reverse transcriptase assessed as 32P-labeled GMP incorporation into nascent DNA strand at highest concentration.
For data set [8], the system named is Human immunodeficiency virus 1. Put plainly: Antiviral activity against HIV1 infected in human HeLa cells expressing CD4-LTR assessed as inhibition of viral entry-related beta galactosidase expression treated for 2 hrs followed by drug wash out measured after 48 hrs by MAGI assay. The format is functional, organism-based. The conditions noted are these: for EC50: Human immunodeficiency virus 1, HeLa.

The subject of data set [9] is Human immunodeficiency virus 2. Put plainly: Antiviral activity against HIV2 assessed as inhibition of viral replication treated at time points after viral entry into host cells. The format is functional, organism-based.
The nature of data set [10]: Therapeutic index, ratio of TC50 for human CEM-SS cells to EC50 for HIV2 ROD infected in human CEM-SS cells. The conditions noted are these: CEM-SS cells, read-out: TI. The format is cell-based.
A short description of data set [11]: Cytotoxicity against human CEM-SS cells by XTT assay. The format is cell-based. The conditions noted are these: read-out: TC50 (the source's name). (In general: Formazan colour is commonly taken as a measure of viable cells.)
A short description of data set [12]: Therapeutic index, ratio of TC50 human HeLa cells expressing CD4-LTR to EC50 for HIV1 entry inhibition in human HeLa cells expressing CD4-LTR. The data set is classed as cell-based. The conditions noted are these: read-out: TI.
Data set [13] deals with Human immunodeficiency virus 2. Put plainly: Inhibition of HIV2 reverse transcriptase.
Data set [14] in a line: Therapeutic index, ratio of TC50 for human CEM-SS cells to EC50 for HIV1 RF infected in human CEM-SS cells. The data set is classed as cell-based. The conditions noted are these: read-out: TI.
The nature of data set [15]: Cytotoxicity against human HeLa cells expressing CD4-LTR by XTT assay. The format is cell-based. The conditions noted are these: read-out: TC50 (the source's name).
For data set [16], the target named is Human immunodeficiency virus type 1 reverse transcriptase (Human immunodeficiency virus 1, UniProt Q72547). Kind of data set: Inhibition of wild type HIV1 reverse transcriptase assessed as 32P-labeled GMP incorporation into nascent DNA strand.
Data set [17] concerns the target Human immunodeficiency virus type 1 reverse transcriptase (Human immunodeficiency virus 1, UniProt Q72547, K103N). Kind of data set: Inhibition of HIV1 reverse transcriptase K103N mutant assessed as 32P-labeled GMP incorporation into nascent DNA strand.
In data set [18] the test system is Human immunodeficiency virus 1. Put plainly: Antiviral activity against HIV1 infected in human HeLa cells expressing CD4-LTR assessed as inhibition of viral entry-related beta galactosidase expression at > 10 ug/ml followed by drug wash out and viral infection measured after 48 hrs by MAGI assay. The format is functional, organism-based.
Data set [19] concerns Human immunodeficiency virus 1. Kind of data set: Antiviral activity against HIV1 infected in human HeLa cells expressing CD4-LTR assessed as inhibition of viral entry-related beta galactosidase expression pretreated 2 hrs before viral infection measured after 48 hrs of infection by MAGI assay. The format is functional, organism-based.
Data set [20] has as its system Human immunodeficiency virus 1. Put plainly: Antiviral activity against HIV1 infected in human HeLa cells expressing CD4-LTR assessed as inhibition of viral entry-related beta galactosidase expression at > 0.5 uM followed by drug wash out and viral infection measured after 48 hrs by MAGI assay. The format is functional, organism-based.
Data set [21] concerns Human immunodeficiency virus 1. Kind of data set: Antiviral activity against HIV1 infected in human HeLa cells expressing CD4-LTR assessed as inhibition of viral entry-related beta galactosidase expression at 0.5 uM followed by drug wash out and viral infection measured after 48 hrs by MAGI assay. The format is functional, organism-based.
For data set [22], the system named is Human immunodeficiency virus 1. Kind of data set: Antiviral activity against HIV1 infected in human HeLa cells expressing CD4-LTR assessed as inhibition of viral entry-related beta galactosidase expression at 0.2 to 0.4 uM followed by drug wash out and viral infection measured after 48 hrs by MAGI assay. The format is functional, organism-based.

The structures appear in SMILES notation. The source made the active and inactive calls.

As to `CCc1c(Oc2cc(C)cc(C)c2)n(CC2CC2)c(=O)[nH]c1=O`, the result in data set [1], in [7], in [9] and in data set [13] was inactive. The EC99 in data set [2] is 10 µM; in data set [6], 1 µM. The results for the EC50 in data set [3], in data set [4] and in data set [8] were 0.6 µM, 0.006 µM and 0.006 µM, respectively. In addition, the result in data set [5] was Active. Also, the inhibition result in the data set on HeLa was “inactive”. For the same compound, the figures for the selectivity ratio in [10], in [12] and in [14] were greater than 2100, 202000 and 215000, respectively. Moreover, the CC50 was 1300 µM in [11] and 1280 µM in [15]. Moreover, the IC50 was 0.016 µM in [16] and 0.21 µM in data set [17].

Turning to `Cc1cc(C)cc(C(=O)c2c(C(C)C)c(=O)[nH]c(=O)n2CC2CC2)c1`, the result in data set [1], in data set [7], in [9] and in data set [13] was inactive. Also, the figures for the EC99 in [2] and in data set [6] were 10 µM and 0.001 µM, respectively. Besides, the EC50 in data set [3] came to 0.1 µM; in data set [4], 0.0005 µM; in data set [8] it was 0.012 µM. The outcome in data set [5] was Active. In addition, the inhibition entry in the data set on HeLa is “inactive”. Besides, the selectivity ratio in data set [10] turned out to be 13000; in data set [12], 101000; in [14], 2.55e+06. Moreover, the CC50 in data set [11] was 1200 µM; in data set [15], 1180 µM. The IC50 in data set [16] is 1.97 µM; in [17] it was 2.7 µM.

In the case of `COc1cc(-c2ccc(/N=N/c3ccc4c(S(=O)(=O)O)cc(S(=O)(=O)O)c(N)c4c3O)c(OC)c2)ccc1/N=N/c1ccc2c(S(=O)(=O)O)cc(S(=O)(=O)O)c(N)c2c1O`, in data set [18], the result was inactive. Further, the outcome in data set [8] and in [19] was Active.

As to `Cc1cn([C@H]2C[C@H](N=[N+]=[N-])[C@@H](CO)O2)c(=O)[nH]c1=O`, the result in data set [20] was inactive.

As for `Cc1cc(C)cc(C(=O)c2c(C(C)C)c(=O)[nH]c(=O)n2CC2=CCCC2)c1`, the outcome in data set [1], in data set [7], in data set [9] and in data set [13] was inactive. The EC99 is 1 µM in data set [2] and 0.001 µM in data set [6]. The results for the EC50 in data set [3], in data set [4] and in data set [8] were 0.1 µM, 0.0001 µM and 0.009 µM, respectively. In data set [5], the outcome was Active. For the same compound, the inhibition entry with HeLa was “inactive”. In addition, the figures for the selectivity ratio in data set [10], in data set [12] and in data set [14] were 122, 2290 and 523000, respectively. Further, the CC50 in data set [11] was found to be 16.7 µM; in data set [15] it was 20.8 µM. Also, the values for the IC50 in data set [16] and in [17] were 0.02 µM and 1.6 µM, respectively.

As to `CCc1c(C(=O)c2cc(C)cc(C)c2)n(CC2CC=CC2)c(=O)[nH]c1=O`, the outcome in data set [1], in data set [7], in data set [9], in [13] and in [21] was inactive. Besides, the EC99 in data set [2] was determined as 100 µM; in data set [6] it was 1 µM. Further, the EC50 in data set [3] is 16 µM; in [4], 0.002 µM; in [8], 0.07 µM. In data set [5], the outcome was Active. In addition, the inhibition entry with HeLa was “inactive”. The selectivity ratio in data set [10] was greater than 71; in data set [12], 15700; in data set [14], 553000. For the same compound, the results for the CC50 in [11] and in data set [15] were 1100 µM and 1120 µM, respectively. In addition, the values for the IC50 in data set [16] and in [17] were 0.179 µM and 2.6 µM, respectively.

Regarding `O=C1Nc2ccc(Cl)cc2[C@@](C#CC2CC2)(C(F)(F)F)O1` [EFAVIRENZ], the outcome in data set [22] was Active. Moreover, the Activity in data set [8] stood at 0.02 µM.

As for `Cc1cc(C)cc(C(=O)c2c(C(C)C)c(=O)[nH]c(=O)n2CC2CC=CC2)c1`, the result in data set [1], in data set [7], in [9] and in [13] was inactive. Besides, the EC99 in data set [2] stood at 100 µM; in data set [6] it was 1 µM. Moreover, the EC50 in data set [3] amounted to 15.5 µM; in data set [4], 0.0022 µM; in data set [8], 0.41 µM. Moreover, the outcome in [5] was Active. Besides, in the data set with HeLa, the inhibition entry is “inactive”. Besides, the selectivity ratio in [10] is greater than 75; in data set [12] it was 2690; in data set [14] it was 491000. The figures for the CC50 in [11] and in data set [15] were 1100 µM and 1120 µM, respectively. Further, the IC50 was 0.651 µM in [16] and 23 µM in [17].

As usually defined, the EC99 is the point of the concentration-response curve where the effect stands at 99%. One may read the EC50 as the concentration at which the effect is half-maximal. Usually IC50 stands for the concentration that gives 50% inhibition.

These data come from ChEMBL document CHEMBL1152465, “Comparative evaluation of the inhibitory activities of a series of pyrimidinedione congeners that inhibit human immunodeficiency virus types 1 and 2” (Antimicrob Agents Chemother, 2008).
